Here are results for two compounds from patent publication US20230124862A1, “BISMUTH THIOL COMPOUNDS AND COMPOSITIONS AND METHODS OF TREATING MICROBIAL CO-INFECTIONS” (Microbion Corporation, priority 2020, published 2023).

Assay [1] has as its system Anaerobes (Bacteroides fragilis, Clostridium difficile). The assay can be described thus: Agar dilution MIC (Example 11). Type of assay: cell-based. On the procedure: The susceptibility of anaerobic bacteria was determined by agar dilution using Brucella Agar (BD/BBL; Lot No. 5237692) supplemented with 5 μg/mL hemin (Sigma, St. Louis, Mo.; Lot No. 108K1088), 1 μg/mL Vitamin K1 and 5% (v/v) laked sheep blood (Cleveland Scientific, Bath, Ohio; Lot No. 322799).
Agar Dilution MIC Testing (Anaerobic Bacteria and Gonococci): MIC values for anaerobic bacteria were determined using a reference agar dilution method as described by CLSI (6). Organisms were grown at 35° C. in the Bactron II Anaerobic Chamber (Shel Lab, Cornelius, Oreg.) for approximately 48 hr prior to the assay. Drug dilutions and drug-supplemented agar plates were prepared manually per CLSI (6). The plates were allowed to stand at room temperature for 1 hr to allow the agar surface to dry and pre-reduced for approximately 1 hr in the anaerobe chamber prior to inoculation. Each isolate was suspended to the equivalent of a 0.5 McFarland standard in Brucella broth using a turbidity meter (Dade Behring MicroScan, West Sacramento, Calif.). Each bacterial cell suspension was then diluted 1:10 in Brucella broth and transferred to wells in a stainless steel replicator block which was used to inoculate the test plates. The prongs on the replicator deliver approximately 1-2 μl of inoculum to an agar surface. The resulting inoculum spots contained approximately 1×10^5 CFU/spot. After the inoculum dried, the inoculated drug-supplemented agar plates and no drug growth control plates were incubated at 35° C. for 42-48 hr in the anaerobe chamber. The MIC was read per CLSI guidelines (6).
Background: In agar dilution the substance is mixed into plates at graded concentrations.

A further assay has as its system P. aeruginosa. Conditions: control strain ATCC 27853; cited from earlier work.

Where two headings read alike, the source gives them in different places.

One may read the MIC as the least concentration at which growth counts as inhibited. Turning to `CC(S)C(C)S.[Bi]` (stereo not shown) [BisBDT, bismuth-2,3-butanedithiol], the MIC in assay [1] (Bacteroides fragilis, ATCC25285, B. fragilis MMX 123 (ATCC 25285), QC, read-out: MIC) was 1 µg/mL; in assay [1] (Bacteroides fragilis, agar dilution, read-out: MIC values), 1 to 4 µg/mL; in assay [1] (C. difficile MMX 5680 (NCTC 13336), ribotype 027, CC^1 MET^R, read-out: MIC), 2 µg/mL; in assay [1] (C. difficile MMX 8272, ribotype 255, CC^1, read-out: MIC), 2 µg/mL; in assay [1] (C. difficile MMX 8279, ribotype 005, CC^R, read-out: MIC) it was 2 µg/mL; in assay [1] (C. difficile MMX 8281, ribotype 010, CC^R, read-out: MIC), 2 µg/mL.
On to `C1C[S][Bi]([S]CC[S][Bi]2[S]CC[S]2)[S]1` [BisEDT, Bismuth-1,2-ethanedithiol], for which the “Expected MIC: goal (acceptable range)” value with P. aeruginosa was 1 to 2 µg/mL.
